Laboratory results reported in US20120129875A1, “SUBSTITUTED QUINAZOLINES AS FUNGICIDES” (SYNGENTA CROP PROTECTION, LLC, priority 2009, published 2012).

Assays:
Type in all cases: in vivo
[1] = system: Mycosphaerella arachidis (Cercospora arachidicola); assay: Mycosphaerella arachidis (Cercospora arachidicola) / peanut / preventative; conditions: peanut plants cv. Georgia Green, inoculated one day after application, vs untreated control, read-out: disease control
Procedure: Mycosphaerella arachidis (Cercospora arachidicola)/Peanut/Preventative 3-week old peanut plants cv. Georgia Green are treated with the formulated test compound in a spray chamber. The test plants are inoculated by spraying them with a spore suspension on their lower leaf surface one day after application. After an incubation period of 4 days under a plastic hood at 23° C. and 100% rh, the test plants are kept at 23° C./20° C. (day/night) and 70% rh in a greenhouse. The percentage leaf area covered by disease is assessed when an appropriate level of disease appears on untreated check plants (12-14 days after application).

Phytophthora infestans = assay: whole plant or invertebrate; conditions: in Solanum tuberosum, read-out: disease control
Alternaria solani = Alternaria solani / tomato / preventative (Alternaria on tomato); conditions: tomato plants cv. Roter Gnom, inoculated two days after application, vs untreated control, read-out: disease control
Procedure: (§1) Alternaria solani/Tomato/Preventative (Alternaria on Tomato) 4-week old tomato plants cv. Roter Gnom are treated with the formulated test compound in a spray chamber. The test plants are inoculated by spraying them with a spore suspension two days after application. The inoculated test plants are incubated at 22/18° C. (day/night) and 95% rh in a greenhouse and the percentage leaf area covered by disease is assessed when an appropriate level of disease appears on untreated check plants (5-7 days after application).

[2] = system: Mycosphaerella graminicola (Septoria tritici); assay: Mycosphaerella graminicola (Septoria tritici) / wheat / preventative (Septoria tritici leaf spot on wheat); conditions: Zymoseptoria tritici, wheat plants cv. Riband, inoculated one day after application, vs untreated control, read-out: disease control
Procedure: Mycosphaerella graminicola (Septoria tritici)/Wheat/Preventative (Septoria tritici Leaf Spot on Wheat) 2-week old wheat plants cv. Riband are treated with the formulated test compound in a spray chamber. The test plants are inoculated by spraying a spore suspension on them one day after application. After an incubation period of 1 day at 22° C./21° C. (day/night) and 95% rh, the test plants are kept at 22° C./21° C. (day/night) and 70% rh in a greenhouse. The percentage leaf area covered by disease is assessed when an appropriate level of disease appears on untreated check plants (16-19 days after application).

[3] = system: Pyrenophora teres (Helminthosporium teres); assay: Pyrenophora teres (Helminthosporium teres) / barley / preventative (net blotch on barley); conditions: barley plants cv. Regina, inoculated 2 days after application, vs untreated control, read-out: disease control
Procedure: Pyrenophora teres (Helminthosporium teres)/Barley/Preventative (Net Blotch on Barley) 1-week old barley plants cv. Regina are treated with the formulated test compound in a spray chamber. The test plants are inoculated by spraying them with a spore suspension 2 days after application. The inoculated test plants are incubated at 20° C. and 95% rh and the percentage leaf area covered by disease is assessed when an appropriate level of disease appears on untreated check plants (5-7 days after application).

Plasmopara viticola = Plasmopara viticola / grape / preventative (grape downy mildew); conditions: grape seedlings cv. Gutedel, inoculated one day after application, vs untreated control, read-out: disease control
Procedure: Plasmopara viticola/Grape/Preventative (Grape Downy Mildew)
5-week old grape seedlings cv. Gutedel are treated with the formulated test compound in a spray chamber. The test plants are inoculated by spraying a sporangia suspension on their lower leaf surface one day after application. The inoculated test plants are incubated at 22° C. and 100% rh in a greenhouse and the percentage leaf area covered by disease is assessed when an appropriate level of disease appears on untreated check plants (6-8 days after application).

[4] = system: Botryotinia fuckeliana (Botrytis cinerea); assay: Botryotinia fuckeliana (Botrytis cinerea) / tomato / preventative (Botrytis on tomato); conditions: tomato plants cv. Roter Gnom, inoculated two days after application, vs untreated control, read-out: disease control
Procedure: as §1, with “Botryotinia fuckeliana (Botrytis cinerea)/Tomato/Preventative (Botrytis” for “Alternaria solani/Tomato/Preventative (Alternaria”, “20°” for “22/18°”, “C.” for “C. (day/night)”, “(5-6” for “(5-7”

[5] = system: Phaeosphaeria nodorum (Septoria nodorum); assay: Phaeosphaeria nodorum (Septoria nodorum) / wheat / leaf disc preventative (glume blotch); conditions: Parastagonospora nodorum, foliar, wheat leaf segments cv. Kanzler on agar, inoculated 2 days after application, vs untreated control, read-out: disease control
In short: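 Wheat cv. Kanzler leaf segments on agar sprayed with formulated compound in water, inoculated with spore suspension 2 days later. Incubated at 20° C., 75% rh, 12 h light/12 h dark; percent disease control versus untreated scored when untreated discs show damage (5-7 days after application).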

[6] = system: Erysiphe necator (Uncinula necator); assay: Erysiphe necator (Uncinula necator) / grape / preventative (powdery mildew on grape); conditions: grape seedlings cv. Gutedel, inoculated 1 day after application, vs untreated control, read-out: disease control
Procedure: Erysiphe necator (Uncinula necator)/Grape/Preventative (Powdery Mildew on Grape) 5-week old grape seedlings cv. Gutedel are treated with the formulated test compound in a spray chamber. The test plants are inoculated by shaking plants infected with grape powdery mildew above them 1 day after application. The inoculated test plants are incubated at 24/22° C. (day/night) and 70% rh under a light regime of 14/10 h (light/dark) and the percentage leaf area covered by disease is assessed when an appropriate level of disease appears on untreated check plants (7-9 days after application).

Measured: pest or weed control at 200 ppm

Cc1ccc(-c2ncc3ccccc3n2)nc1Cc1ccccc1 [7/17]
≥ 80%: [1] | Phytophthora infestans | Alternaria solani | [2]

Cc1ccc(-c2ncc3ccccc3n2)nc1-c1ccc(F)cc1 [3/72]
≥ 80%: [3] | Plasmopara viticola | Phytophthora infestans | Alternaria solani | [4]

COc1cccc(-c2cccc(-c3ncc4ccccc4n3)n2)c1F [2/60]
≥ 80%: Plasmopara viticola | Phytophthora infestans | Alternaria solani | [4] | [5]

c1ccc(Cc2cccc(-c3ncc4ccccc4n3)n2)cc1 [6/17, 2-(6-benzylpyridin-2-yl)-quinazoline]
not listed: [2] | [5]
≥ 80%: all other assays above

Cc1cc(-c2nc(-c3ncc4ccccc4n3)ccc2C)ccc1F [3/85]
not listed: [5]
≥ 80%: all other assays above

Cc1cccc(-c2nc(-c3ncc4ccccc4n3)ccc2C)c1 [3/75]
not listed: [3] | [5]
≥ 80%: all other assays above

Cc1ccc(-c2ncc3ccccc3n2)nc1Oc1ccccc1 [5/18]
≥ 80%: [3] | Plasmopara viticola | Phytophthora infestans | Alternaria solani | [4]

Cc1ccc(-c2ncc3ccccc3n2)nc1-c1ccccc1 [3/71]
not listed: [1] | [5] | [6]
≥ 80%: all other assays above

COc1ccc(-c2nc(-c3ncc4ccccc4n3)ccc2C)cc1F [3/92, 2-[6-(3-fluoro-4-methoxy-phenyl)-5-methylpyridin-2-yl]-quinazoline]
not listed: [5]
≥ 80%: all other assays above

Cc1ccccc1-c1nc(-c2ncc3ccccc3n2)ccc1C [3/76]
not listed: [5] | [6]
≥ 80%: all other assays above

Cc1cc(F)ccc1-c1cccc(-c2ncc3ccccc3n2)n1 [2/55]
not listed: [2] | [5]
≥ 80%: all other assays above

Cc1ccc(-c2ncc3ccccc3n2)nc1-c1cc(F)cc(F)c1 [3/90]
not listed: [5]
≥ 80%: all other assays above

Cc1ccc(-c2ncc3ccccc3n2)nc1-c1ccc(F)c(F)c1 [3/89]
not listed: Phytophthora infestans | [5]
≥ 80%: all other assays above

Cc1ccc(-c2ncc3ccccc3n2)nc1-c1cccc(F)c1 [3/77]
≥ 80%: Plasmopara viticola | Phytophthora infestans | Alternaria solani | [2]

Cc1cccc(Cc2cccc(-c3ncc4ccccc4n3)n2)c1F [6/12]
not listed: Phytophthora infestans | Plasmopara viticola | [5]
≥ 80%: all other assays above
